Assay results reported in patent publication US20160074380A1, “Treatment Of Neurodegenerative Diseases With Combination Of Laquinimod And Fingolimod” (TEVA PHARMACEUTICAL INDUSTRIES LTD., priority 2014, published 2016).
Values joined by “and” are separate entries in the source; they are usually repeats but may differ in a detail not shown here. Identical values can stand only once. Like-named read-outs stand apart in the source and are kept apart here.

Columns and labels:
reactive astrocytes [1] = assay: IL-12p70 concentration in conditioned media from reactive astrocytes (cytometry); type: cell-based, mice; settings: LPS+IFNγ
Protocol: (§1) Mice mixed glial cells were cultured as described by McCarthy et al., 1980. Primary mice glial cells were prepared from the cortical of newborn Swiss mice (1 day). Briefly, meninges and blood vessels of the mice cortex were removed and placed in ice-cold medium of L15 containing 2% of PS and 1% of BSA. Tissues were dissociated with 0.25% trypsin-EDTA at 37° C. for 10 min. Cells were then submitted to a supplementary incubation of 15 min at 37° C. in presence of deoxyribonuclease I (final concentration of 0.5 mg/mL). Cells were then pelleted (5 min at 1200 rpm) and trypsinization was stopped by adding DMEM supplemented with 10% FCS, 1 mM of Na/pyruvate (PanBiotech, ref: P04-43100, batch: 3470914) and 2% PS. Cells suspension was mechanically dissociated and filtered through 40 μm diameter nylon meshes (BD Falcon, Ref: 352340). The cells were collected by centrifugation at 1200 rpm/min for 10 min, re-suspended in culture medium and then plated in culture flasks (Dutscher, ref: 690175). Cells were seeded at a density of 1.25×10^5 cells/cm2 and cultured in 5% CO2 at 37° C. Medium was changed three times per week.
(§2) Purification of astrocytes cells was done as described by Kim et al., 2006. After 14 days, the flasks were shaken on a rotary shaker at 200 rpm for 3 h. The resulting cell suspension rich in microglia was removed. Cells remaining in the flasks from which microglia had been harvested correspond to astrocytes at a purity of about 90%. Astrocytes were cultured in DMEM supplemented with 10% FCS, 1 mM of Na/pyruvate and 2% at 5% CO2 and 37° C. in flasks of 25 cm2.
(§3) When reaching confluence, primary astroglial cells were first incubated for 2 hours with Fingolimod (1 nM, 10 nM) or Laquinimod (1 nM, 10 nM, 100 nM, 1 μM, 10 μM) alone or in co-incubation or control medium.
(§4) At the end of 2 hours treatment with test compounds, astrocyte culture was activated with serum-free DMEM containing LPS (100 ng/mL; Sigma, Serotype 026:B6, ref: L2654; batch: 123M4052V) and IFNγ (10 ng/mL; Peprotech; ref: 315-05; batch: 061398 L0513) for 6 hours (Kim and Lee, 2013; Shu et al., 2014; Gresa-Arribas et al., 2012) in absence or presence of test compounds.
(§5) To obtain LPS/INFγ free conditioned media (CM), after 6 hours, cells were washed twice with DMEM and medium was replaced with DMEM supplemented with B27 (2%), L-glutamine (2 mM), PS solution (2%). LCM was collected 24 hrs after. For control, cells were incubated with medium not containing LPS/INFγ. […]

reactive astrocytes [2] = assay: GM-CSF concentration in conditioned media from reactive astrocytes (cytometry); type: cell-based, mice; settings: LPS+IFNγ
Protocol: as §1, §2, §3, §4, §5

cuprizone model [3] = settings: Slovic, 2012, Kim, 2011; cited from earlier work
oligodendrocytes [4] = settings: inflammatory insults; Rochelle, 2007; cited from earlier work
[5] = DA EAE rats, doses 0.03-0.3 mg/kg; Foster, 2007; cited from earlier work
cuprizone model [6] = assay: Demyelination and re-myelination in the cuprizone model; type: in vivo
lysolecithin model = assay: Lysolecithin-induced demyelination model; type: in vivo
oligodendrocytes [7] = assay: Oligodendrocyte survival under inflammatory insults; type: cell-based
[8] = tested on: H2TT (primary neuronal culture) cells; assay: Oxidative glutamate toxicity of H2TT cells; type: cell-based; settings: prolonged incubation
human astrocytes = assay: Human astrocyte activation and cytokine secretion in vitro; type: cell-based
Source text: The effect of laquinimod on human astrocyte activation, as investigated in another study, is detailed in FIGS. 9 and 10. […] In unstimulated cells, the NF-κB dimers are sequestered in the cytoplasm by a family of inhibitors, called IκBs (Inhibitor of κB). […] Activation of the NF-κB is initiated by the signal-induced degradation of IκB proteins. This occurs primarily via activation of a kinase called the IκB kinase (IKK). When activated by signals, usually coming from the outside of the cell, the IκB kinase phosphorylates two serine residues located in an IκB regulatory domain. When phosphorylated, the IκB inhibitor molecules are modified by a process called ubiquitination, which than leads them to be degraded by a cell structure called the proteasome. With the degradation of IκB, the NF-κB complex is then freed to enter the nucleus where it can ‘turn on’ the expression of specific genes that have DNA-binding sites for NF-κB nearby. The activation of these genes by NF-κB then leads to the given physiological response, for example, an inflammatory or immune response.

human microglia = assay: Human microglia activation in culture (LPS); type: cell-based
Source text: (§6) In another study, laquinimod reduced microglial activation in culture. The size of CD14 stained human microglia was increased with LPS activation. Also, in FIG. 13, human (C) or mouse (D) microglia elevated TNF-α secretion upon LPS activation, which was attenuated by laquinimod.

mouse microglia = assay: Mouse microglia TNF-α secretion upon LPS activation; type: cell-based
Source text: as §6

microglia/macrophages = assay: Microglial activation in EAE-afflicted mice; type: in vivo; settings: spinal cord of EAE-afflicted mice
Source text: Laquinimod inhibited microglial activation in EAE in mice. Transcripts encoding markers of activation of microglia/macrophages were increased in the spinal cord of EAE-afflicted mice and decreased in laquinimod-treated animals, as presented in FIG. 15.

[9] = Penetration of intact and disrupted Blood Brain Barrier; type: in vivo, mice; settings: for Kp: mouse, CNS tissue relative to blood, read-out: CNS tissue level, % of the blood concentration
Source text: In another study, laquinimod, as a small molecule, penetrated both intact and disrupted Blood Brain Barrier (BBB). In view of FIG. 17, CNS tissue level of laquinimod was 7-8% of the blood concentration in healthy mice and 13% in EAE mice when the BBB was disrupted. Further, 90% of the drug in cerebrospinal fluid (CSF) was active, or free, due to low protein binding and expected also in brain interstitial fluids. Thus, laquinimod targeted the entire brain and not only the lesions.

[10] = Mus musculus, Astrocyte, 1 nM, read-out: % inhibition of IL-12p70 release
[11] = Mus musculus, Astrocyte, 10 nM, read-out: % inhibition of IL-12p70 release
[12] = Mus musculus, Astrocyte, 1 nM, read-out: % inhibition of GM-CSF release
[13] = Mus musculus, Astrocyte, 10 nM, read-out: % inhibition of GM-CSF release

**Q.** Which results are given for CCCCCCCCc1ccc(CCC(N)(CO)CO)cc1 [Fingolimod]?
**A.** IL-12p70 content (reactive astrocytes [1]; 1 nM): 6.15 pg/mL; IL-12p70 content (reactive astrocytes [1]; 10 nM): 4.25 pg/mL; inhibition at 0.001 µM (reactive astrocytes [1]; [10]): 38.1%; inhibition at 0.01 µM (reactive astrocytes [1]; [11]): 57.2%; GM-CSF content (reactive astrocytes [2]; 1 nM): 204.09 pg/mL; GM-CSF content (reactive astrocytes [2]; 10 nM): 147.56 pg/mL; GM-CSF release (reactive astrocytes [2]; 10 nM): 148 pg/mL; inhibition at 0.001 µM (reactive astrocytes [2]; [12]): 16%; inhibition at 0.01 µM (reactive astrocytes [2]; [13]): 39.2%; re-myelination (cuprizone model [3]): not conclusive; oligodendrocyte survival (oligodendrocytes [4]): did protect oligodendrocytes; brain/blood ratio [5]: about 20

**Q.** Which IL-12p70 content (reactive astrocytes [1]; 1 nM) does the source give for CCN(C(=O)c1c(O)c2c(Cl)cccc2n(C)c1=O)c1ccccc1 [Laquinimod] here?
**A.** 6.53 pg/mL

**Q.** And the IL-12p70 content (reactive astrocytes [1]; 10 nM)?
**A.** 6.29 pg/mL

**Q.** And the IL-12p70 content (reactive astrocytes [1]; 100 nM)?
**A.** 3.84 pg/mL

**Q.** What about the IL-12p70 content (reactive astrocytes [1]; 1 μM) of the same molecule?
**A.** 2.55 pg/mL

**Q.** And the inhibition at 0.001 µM (reactive astrocytes [1]; [10])?
**A.** 34.3%

**Q.** And the inhibition at 0.01 µM (reactive astrocytes [1]; [11])?
**A.** 36.7%

**Q.** What about the inhibition at 0.1 µM (reactive astrocytes [1]; Mus musculus, Astrocyte, 100 nM, read-out: % inhibition of IL-12p70 release) of the same molecule?
**A.** 61.4%

**Q.** What about the inhibition at 1 µM (reactive astrocytes [1]; Mus musculus, Astrocyte, 1 μM, read-out: % inhibition of IL-12p70 release) of the same molecule?
**A.** 74.3%

**Q.** What about the GM-CSF content (reactive astrocytes [2]; 1 nM) of the same molecule?
**A.** 207.71 pg/mL

**Q.** What about the GM-CSF content (reactive astrocytes [2]; 10 nM) of the same molecule?
**A.** 209.51 pg/mL

**Q.** And the GM-CSF content (reactive astrocytes [2]; 100 nM)?
**A.** 179.39 pg/mL

**Q.** What about the GM-CSF content (reactive astrocytes [2]; 1 μM) of the same molecule?
**A.** 154 pg/mL and 154.26 pg/mL

**Q.** What about the inhibition at 0.001 µM (reactive astrocytes [2]; [12]) of the same molecule?
**A.** 14.5%

**Q.** And the inhibition at 0.01 µM (reactive astrocytes [2]; [13])?
**A.** 13.7%

**Q.** What about the inhibition at 0.1 µM (reactive astrocytes [2]; Mus musculus, Astrocyte, 100 nM, read-out: % inhibition of GM-CSF release) of the same molecule?
**A.** 26.1%

**Q.** And the inhibition at 1 µM (reactive astrocytes [2]; Mus musculus, Astrocyte, 1 μM, read-out: % inhibition of GM-CSF release)?
**A.** 36.5%

**Q.** What about the re-myelination (cuprizone model [6]; after cuprizone withdrawal) of the same molecule?
**A.** no effect

**Q.** What about the demyelination (cuprizone model [6]; cuprizone model (non-T cell model of demyelination)) of the same molecule?
**A.** significantly less demyelination

**Q.** And the lysolecithin-induced demyelination (lysolecithin model)?
**A.** no effect

**Q.** And the oligodendrocyte survival (oligodendrocytes [7])?
**A.** does not protect oligodendrocytes

**Q.** What about the oxidative glutamate toxicity [8] of the same molecule?
**A.** protects against oxidative glutamate toxicity

**Q.** What about the pro-inflammatory cytokine secretion (human astrocytes; human astrocytes in vitro) of the same molecule?
**A.** down regulates

**Q.** And the astrocyte activation (human astrocytes; via the NF-κB pathway)?
**A.** interferes with astrocyte activation

**Q.** And the “size of CD14 stained human microglia” value (human microglia; LPS activation)?
**A.** reduced

**Q.** And the “microglial production of pro-inflammatory cytokine” value (human microglia; human microglia)?
**A.** inhibited

**Q.** What about the TNF-α secretion (human microglia; human microglia, LPS activation) of the same molecule?
**A.** attenuated

**Q.** What about the TNF-α secretion (mouse microglia) of the same molecule?
**A.** attenuated

**Q.** What about the “transcripts encoding markers of activation of microglia/macrophages” value (microglia/macrophages) of the same molecule?
**A.** decreased

**Q.** And the “active, or free, drug in cerebrospinal fluid (CSF)” value ([9]; low protein binding)?
**A.** 90%

**Q.** And the Kp ([9]; EAE mice, BBB disrupted)?
**A.** 0.13

**Q.** And the Kp ([9]; healthy mice)?
**A.** 0.07 to 0.08
